Data reported in PubChem BioAssay (NCI).
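Results reflect a 48-hour exposure of cells in 96-well plates to compound at five concentrations. GI50 marks 50% less growth. TGI: concentration producing complete growth inhibition.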

Legend:
Test in all cases: NCI anticancer screen, dose series, 48 h
[1] = test system: A498 renal
[2] = test system: RPMI-8226 leukemia
[3] = test system: NCI-H23 lung
[4] = test system: MALME-3M melanoma
[5] = test system: MDA-MB-435
[6] = test system: SK-MEL-2 melanoma
[7] = test system: HT29 colon
[8] = test system: SW-620 colon
[9] = test system: UACC-257 melanoma
[10] = test system: UO-31 renal
[11] = test system: MDA-MB-231 breast
[12] = test system: NCI-H460 lung
[13] = test system: SK-MEL-5 melanoma
[14] = test system: SK-OV-3 ovarian
[15] = test system: TK-10 renal
[16] = test system: SNB-75 CNS
[17] = test system: NCI-H522 lung
[18] = test system: U251 CNS
[19] = test system: SF-539 CNS
[20] = test system: SN12C renal
[21] = test system: IGROV1 ovarian
[22] = test system: OVCAR-3 ovarian
[23] = test system: MCF7 breast
[24] = test system: SNB-19 CNS
[25] = test system: OVCAR-8 ovarian
[26] = test system: DU-145 prostate
[27] = test system: HL-60(TB) leukemia
[28] = test system: NCI/ADR-RES ovarian
[29] = test system: NCI-H226 lung
[30] = test system: OVCAR-4 ovarian
[31] = test system: HOP-62 NSCLC
[32] = test system: HCC-2998 colon
[33] = test system: SF-268 CNS
[34] = test system: CAKI-1 renal
[35] = test system: COLO 205 colon
[36] = test system: A549 NSCLC
[37] = test system: K-562 leukemia
[38] = test system: UACC-62 melanoma
[39] = test system: LOX IMVI melanoma
[40] = test system: EKVX NSCLC
[41] = test system: HS 578T breast
[42] = test system: SR leukemia
[43] = test system: PC-3 prostate
[44] = test system: CCRF-CEM leukemia
[45] = test system: HCT-116 colon

## C=CC1CN2CCC1CC2C(O)c1ccnc2ccc(OC)cc12 (stereo not drawn)
[1]
  GI50: > 100000 nM
  TGI: > 100000 nM
[2]
  GI50: 53000 nM
  TGI: > 100000 nM
[3]
  GI50: > 100000 nM
  TGI: > 100000 nM
[4]
  GI50: > 100000 nM
  TGI: > 100000 nM

## COc1cc2c(cc1O)CC[C@@H]1[C@@H]2CC[C@]2(C)[C@@H](OCCN(C)C)CC[C@@H]12
[5]
  GI50: 99.7 nM
  TGI: 208 nM
[6]
  GI50: 230 nM
  TGI: 1040 nM
[7]
  GI50: 158 nM
  TGI: 568 nM
[8]
  GI50: 163 nM
  TGI: 763 nM
[9]
  GI50: 138 nM
  TGI: 355 nM
[10]
  GI50: 624 nM
  TGI: 1480 nM
[11]
  GI50: 153 nM
  TGI: 595 nM
[12]
  GI50: 219 nM
  TGI: 2090 nM
[13]
  GI50: 82.8 nM
  TGI: 164 nM
[14]
  GI50: 356 nM
  TGI: 2110 nM
[15]
  GI50: 932 nM
  TGI: 2810 nM
[16]
  GI50: 78.7 nM
  TGI: 449 nM
[1]
  GI50: 569 nM
  TGI: 1370 nM
[17]
  GI50: 341 nM
  TGI: 1300 nM
[18]
  GI50: 219 nM
  TGI: 872 nM
[19]
  GI50: 129 nM
  TGI: 414 nM
[20]
  GI50: 803 nM
  TGI: 4050 nM
[21]
  GI50: 818 nM
  TGI: 5940 nM
[22]
  GI50: 183 nM
  TGI: 966 nM
[23]
  GI50: 170 nM
  TGI: 884 nM
[24]
  GI50: 777 nM
  TGI: 5140 nM
[25]
  GI50: 488 nM
  TGI: 5880 nM
[26]
  GI50: 182 nM
  TGI: 5350 nM
[27]
  GI50: 100 nM
  TGI: 232 nM
[28]
  GI50: 163 nM
  TGI: 861 nM
[29]
  GI50: 1170 nM
  TGI: 6040 nM
[2]
  GI50: 116 nM
  TGI: 312 nM
[30]
  GI50: 306 nM
  TGI: 5840 nM
[31]
  GI50: 389 nM
  TGI: 1660 nM
[32]
  GI50: 644 nM
  TGI: 1500 nM
[33]
  GI50: 353 nM
  TGI: 5290 nM
[34]
  GI50: 1450 nM
  TGI: 6190 nM
[35]
  GI50: 521 nM
  TGI: 1170 nM
[36]
  GI50: 247 nM
  TGI: 1190 nM
[37]
  GI50: 150 nM
  TGI: 685 nM
[38]
  GI50: 128 nM
  TGI: 363 nM
[3]
  GI50: 202 nM
  TGI: 1120 nM
[39]
  GI50: 94.9 nM
  TGI: 192 nM
[40]
  GI50: 527 nM
  TGI: 28500 nM
[41]
  GI50: 463 nM
  TGI: 4000 nM
[42]
  GI50: 148 nM
  TGI: 894 nM
[4]
  GI50: 155 nM
  TGI: 753 nM

## C=CCN(CC=C)C(=O)[C@H](CC)[C@@H]1CC[C@@H](C)[C@@H]([C@H](C)[C@@H](O)[C@@H](C)C(=O)[C@H](CC)C2O[C@]3(C=CC(=O)[C@]4(CC[C@@](C)([C@H]5CC[C@](O)(CC)[C@H](C)O5)O4)O3)[C@H](C)C[C@@H]2C)O1 (stereo partly drawn)
[43]
  GI50: 2020 nM
  TGI: > 100000 nM
[44]
  GI50: 2650 nM
  TGI: > 100000 nM
[45]
  GI50: 2760 nM
  TGI: > 100000 nM
[34]
  GI50: 1960 nM
  TGI: > 100000 nM
[37]
  GI50: 2310 nM
  TGI: > 100000 nM

## COCCCC(NC(=O)C(CC(C)C)NC(=O)OCc1ccc(OC)cc1)C(N)=O (stereo not drawn)
[30]
  GI50: 47.2 µg/mL
